According to patent US11673889B2, “Substituted imidazo[4,5-c][1,8]naphthyridines as phosphodiesterase inhibitors” (Nanjing Zhengxiang Pharmaceuticals Co., Ltd., priority 2019, dated 2023):

What was measured:
[1] = system: cGAMP activated THP-1 cells; assay: ENPP1 inhibitors screening on cGAMP activated THP-1 cells (IFN-β ELISA); format: cell-based; conditions: THP-1 cells with 2′3′-cGAMP, 24 hours, FIGS. 1A-1E
Method: THP-1 cells from bulk cultures were counted and suspended in RPMI 1640, 20% FBS, 2.5 mM L-alanyl-L-glutamine at a concentration of 5.5×10^6 cells/mL. The THP-1 cells were subsequently seeded into 96 well round bottom plates 180 μL/well (1×10^6 cells per well), incubated for 1 hour at 37° C., 5% CO2.
Test compounds were screened in triplicate on THP-1 cells at a final concentration of 10 μM. A working solutions at 0.2 mM. Each well contains 180 μL of THP-1 cell suspension, 10 μL (30 μM, 40 μM or 50 μM) 2′3′-cGAMP (InvivoGen, catalog #tlrl-nacga23) solution (600 μM, 800 μM or 1000 μM) and 10 μL test compound working solution. Incubate for 1 hour.
Vehicle control wells contain 2′3′-cGAMP at concentrations of […] and 50 μM without any test compound. Positive control, 2′3′-cGAMP or 2′,3′-cGAM(PS)2 (Rp/Sp) (InvivoGen, cat #tlrl-nacga2srs) at 40 μM and 80 μM (final concentration).
The final assay volume were 200 μL/well contains: 1) THP-1 cells=180 μL, 2) test compounds=10 μL, 3) 2′3′-cGAMP or 2′3′-cGAM(PS)2 (Rp/Sp) or vehicle control=10 μL.
After incubation for 24 hours at 37° C., 5% CO2, the supernatants were harvested at 200×g for 10 minutes. Cell culture supernatants were then transferred to a clean plate and stored at −80° C. until ready to analyze for IFN-β levels. The IFN-β levels in cell culture supernatants were determined by ELISA kits (PBL Assay Science, catalog #41410) according to the manufacturer's instructions.
The % increase measured for IFN-β in cells treated by the test compounds 12, 48, 89, 103 and 121 relative to that of untreated cells were tested (as shown in FIGS. 1A-1E).

[2] = target: T1, human soluble ENPP1 (Homo sapiens, UniProt P22413); assay: ENPP1 activity assay using p-Nitrophenyl-5′-TMP as a substrate; format: biochemical
T1 construct: 20 ng of human soluble ENPP1
T1 sequence (P22413 103-925 limits assumed): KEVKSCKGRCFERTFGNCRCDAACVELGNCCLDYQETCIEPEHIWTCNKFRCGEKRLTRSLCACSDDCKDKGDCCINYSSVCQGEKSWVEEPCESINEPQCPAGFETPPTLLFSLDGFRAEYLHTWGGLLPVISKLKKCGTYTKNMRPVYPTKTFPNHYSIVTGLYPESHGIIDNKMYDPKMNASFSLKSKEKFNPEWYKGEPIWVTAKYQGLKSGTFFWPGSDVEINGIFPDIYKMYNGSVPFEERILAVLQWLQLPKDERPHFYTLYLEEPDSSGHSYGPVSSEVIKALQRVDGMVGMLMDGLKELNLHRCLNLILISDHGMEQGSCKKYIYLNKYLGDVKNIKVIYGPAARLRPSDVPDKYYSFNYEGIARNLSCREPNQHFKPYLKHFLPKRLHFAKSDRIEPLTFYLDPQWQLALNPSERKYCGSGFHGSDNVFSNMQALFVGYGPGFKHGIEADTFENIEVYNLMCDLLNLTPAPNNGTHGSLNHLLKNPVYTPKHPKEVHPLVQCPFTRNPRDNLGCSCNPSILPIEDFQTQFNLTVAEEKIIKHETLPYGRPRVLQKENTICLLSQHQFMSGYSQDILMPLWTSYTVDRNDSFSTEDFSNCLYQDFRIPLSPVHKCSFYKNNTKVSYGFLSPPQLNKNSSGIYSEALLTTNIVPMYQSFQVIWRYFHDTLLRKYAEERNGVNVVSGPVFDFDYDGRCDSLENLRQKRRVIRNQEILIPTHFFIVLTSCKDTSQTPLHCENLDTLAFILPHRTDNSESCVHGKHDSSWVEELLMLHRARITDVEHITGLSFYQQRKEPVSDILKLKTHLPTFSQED
Outline: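 Human soluble ENPP1 (20 ng) was preincubated with inhibitor for 30 min at room temperature. TMP-pNP was then added as a 2 mM […] solution and incubated 1 h at RT, with p-nitrophenol formation read by OD. IC50 came from four-parameter fits of % inhibition relative to no-inhibitor and blank controls.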

Row | SMILES | % increase measured for IFN-β relative to that of untreated cells [1] | IC50 [2] [nM]
1 | COc1cc2ncc3ncn(Cc4ccc(S(N)(=O)=O)cn4)c3c2cc1OC [Compound 12, 6-((7,8-dimethoxy-1H-imidazo[4,5-c]quinolin-1-yl)methyl)pyridine-3-sulfonamide] | potently increased the IFN-β levels at very low concentrations | 1.2
2 | COc1ccc2c(ncc3nc(C)n(Cc4ccc(S(N)(=O)=O)cc4)c32)n1 [Compound 48, 4-((7-methoxy-2-methyl-1H-imidazo[4,5-c][1,8]naphthyridin-1-yl)methyl)benzenesulfonamide] | potently increased the IFN-β levels at very low concentrations | 0.29
3 | COc1ccc2c(n1)nc(C)c1nc(C)n(Cc3ccc(S(N)(=O)=O)cn3)c12 [Compound 89, 6-((7-methoxy-2,4-dimethyl-1H-imidazo[4,5-c][1,8]naphthyridin-1-yl)methyl)pyridine-3-sulfonamide] | potently increased the IFN-β levels at very low concentrations | 0.52
